Experimental findings from patent US9290459B1, “Substituted bicyclic dihydropyrimidinones and their use as inhibitors of neutrophil elastase activity” (Boehringer Ingelheim International GmbH, priority 2013, dated 2016) are described below.

In this assay the target is Human neutrophil elastase (Homo sapiens (Human), UniProt P08246). The experiment in a line: Human Neutrophil Elastase Assay. In kind it is biochemical. As to conditions: human neutrophil elastase, substrate MeOSuc-Ala-Ala-Pro-Val-AMC 250 μM, pH 7.5; read-out: IC50.
Chain of Human neutrophil elastase (P08246 30-247): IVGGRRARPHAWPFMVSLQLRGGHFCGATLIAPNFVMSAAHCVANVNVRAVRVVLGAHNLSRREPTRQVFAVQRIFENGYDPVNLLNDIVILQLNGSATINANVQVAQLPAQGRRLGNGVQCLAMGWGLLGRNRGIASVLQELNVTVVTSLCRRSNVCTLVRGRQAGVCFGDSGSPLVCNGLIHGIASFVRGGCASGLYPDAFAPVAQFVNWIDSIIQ
Usually IC50 stands for the concentration that inhibits the measured activity by half. For the compound `CNC(=O)N1C(=O)N(c2ccnc(C(F)(F)F)c2)C2=C(C(=O)CC2)C1c1ccc(C#N)cc1` (racemic) [Example 54.1], the IC50 is 4.9 nM.
As to `N#Cc1ccc(C2C3=C(CCC3=O)N(c3ccnc(C(F)(F)F)c3)C(=O)N2C(=O)NC2CC2)cc1` (racemic) [Example 54.3], the IC50 worked out at 1.5 nM.
On to `CC(C)NC(=O)N1C(=O)N(c2ccnc(C(F)(F)F)c2)C2=C(C(=O)CC2)C1c1ccc(C#N)cc1` (racemic) [Example 54.4], for which the IC50 turned out to be 2.4 nM.
For the compound `CNC(=O)N1C(=O)N(c2ccnc(C(F)(F)F)c2)C2=C(C(=O)CC2)C1c1ccc(C#N)cc1S(C)(=O)=O` (racemic) [Example 56.1], the IC50 was below 1 nM.
Take `CCNC(=O)N1C(=O)N(c2ccnc(C(F)(F)F)c2)C2=C(C(=O)CC2)C1c1ccc(C#N)cc1S(C)(=O)=O` (racemic) [Example 56.2]: the half-inhibitory concentration (IC50) is below 1 nM.
As for `C[S+]([O-])c1cc(C#N)ccc1C1NC(=O)N(c2cccc(C(F)(F)F)c2)C2=C1C(=O)CC2` (single isomer, unassigned) [Example 17A, 4-(2,5-dioxo-1-(3-(trifluoromethyl)phenyl)-2,3,4,5,6,7-hexahydro-1H-cyclopenta[d]pyrimidin-4-yl)-3-(methylsulfinyl)benzonitrile], the figure is 8.1 nM; as for `C[S+]([O-])c1cc(C#N)ccc1C1NC(=O)N(c2cccc(C(F)(F)F)c2)C2=C1C(=O)CC2` (single isomer, unassigned) [Example 17B, 4-(2,5-dioxo-1-(3-(trifluoromethyl)phenyl)-2,3,4,5,6,7-hexahydro-1H-cyclopenta[d]pyrimidin-4-yl)-3-(methylsulfinyl)benzonitrile], 9.4 nM; as for `COC(=O)CN1C(=O)N(c2cccc(C(F)(F)F)c2)C2=C(C(=O)CC2)C1c1ccc(C#N)cc1` (stereo not drawn) [Example 3, Methyl 2-(4-(4-Cyanophenyl)-2,5-dioxo-1-(3-(trifluoromethyl)phenyl)-6,7-dihydro-1H-cyclopenta[d]pyrimidin-3(2H,4H,5H)-yl)acetate], 17 nM.
With `N#Cc1ccc(C2C3=C(CCC3=O)N(c3cccc(C(F)(F)F)c3)C(=O)N2CC(=O)O)cc1` (stereo not drawn) [Example 4, 2-(4-(4-Cyanophenyl)-2,5-dioxo-1-(3-(trifluoromethyl)phenyl)-6,7-dihydro-1H-cyclopenta[d]pyrimidin-3(2H,4H,5H)-yl)acetic acid], the IC50 came to 10.9 nM.
For the compound `N#Cc1ccc(C2C3=C(CCC3=O)N(c3cccc(C(F)(F)F)c3)C(=O)N2CC(N)=O)cc1` (stereo not drawn) [Example 5, 2-(4-(4-Cyanophenyl)-2,5-dioxo-1-(3-(trifluoromethyl)phenyl)-6,7-dihydro-1H-cyclopenta[d]pyrimidin-3(2H,4H,5H)-yl)acetamide], the IC50 was 11.2 nM.
As to `N#Cc1ccc(C2C3=C(CCC3=O)N(c3cccc(C(F)(F)F)c3)C(=O)N2CC(=O)N2CCSCC2)cc1` (stereo not drawn) [Example 6, 4-(2,5-Dioxo-3-(2-oxo-2-thiomorpholinoethyl)-1-(3-(trifluoromethyl)phenyl)-2,3,4,5,6,7-hexahydro-1H-cyclopenta[d]pyrimidin-4-yl)benzonitrile], the IC50 was determined as 3 nM.
`CN(C)C(=O)N1C(=O)N(c2cccc(C(F)(F)F)c2)C2=C(C(=O)CC2)C1c1ccc(C#N)cc1` (stereo not drawn) [Example 7, 4-(4-Cyanophenyl)-N,N-dimethyl-2,5-dioxo-1-(3-(trifluoromethyl)phenyl)-4,5,6,7-tetrahydro-1H-cyclopenta[d]pyrimidine-3(2H)-carboxamide]: the concentration for half-maximal inhibition (IC50) is 124 nM.
Turning to `COC(=O)N1C(=O)N(c2cccc(C(F)(F)F)c2)C2=C(C(=O)CC2)C1c1ccc(C#N)cc1` (stereo not drawn) [Example 8, Methyl 4-(4-Cyanophenyl)-2,5-dioxo-1-(3-(trifluoromethyl)phenyl)-4,5,6,7-tetrahydro-1H-cyclopenta[d]pyrimidine-3(2H)-carboxylate], the IC50 came to 4 nM.
As for `CS(=O)(=O)N1C(=O)N(c2cccc(C(F)(F)F)c2)C2=C(C(=O)CC2)C1c1ccc(C#N)cc1` (stereo not drawn) [Example 9, 4-(3-(Methylsulfonyl)-2,5-dioxo-1-(3-(trifluoromethyl)phenyl)-2,3,4,5,6,7-hexahydro-1H-cyclopenta[d]pyrimidin-4-yl)benzonitrile], the figure is 5.1 nM; as for `CS(=O)(=O)N1C(=O)N(c2cccc(C(F)(F)F)c2)C2=C(C(=O)CC2)[C@@H]1c1ccc(C#N)cc1` [Example 9B, (S)-4-(3-(Methylsulfonyl)-2,5-dioxo-1-(3-(trifluoromethyl)phenyl)-2,3,4,5,6,7-hexahydro-1H-cyclopenta[d]pyrimidin-4-yl)benzonitrile], 3180 nM; as for `CS(=O)(=O)c1cc(C#N)ccc1C1NC(=O)N(c2cccc(C(F)(F)F)c2)C2=C1C(=O)CC2` (stereo not drawn) [Example 10, 4-(2,5-Dioxo-1-(3-(trifluoromethyl)phenyl)-2,3,4,5,6,7-hexahydro-1H-cyclopenta[d]pyrimidin-4-yl)-3-(methylsulfonyl)benzonitrile], 5.8 nM.
For the compound `CS(=O)(=O)c1cc(C#N)ccc1[C@@H]1NC(=O)N(c2cccc(C(F)(F)F)c2)C2=C1C(=O)CC2` [Example 10B, (R)-4-(2,5-Dioxo-1-(3-(trifluoromethyl)phenyl)-2,3,4,5,6,7-hexahydro-1H-cyclopenta[d]pyrimidin-4-yl)-3-(methylsulfonyl)benzonitrile], the IC50 amounted to 98.4 nM.
Consider `N#Cc1ccc(C2NC(=O)N(c3cccc(C(F)F)c3)C3=C2C(=O)CC3)cc1` (stereo not drawn) [Example 11, 4-(1-(3-(Difluoromethyl)phenyl)-2,5-dioxo-2,3,4,5,6,7-hexahydro-1H-cyclopenta[d]-pyrimidin-4-yl)benzonitrile], for which the IC50 was 37.4 nM.
Regarding `N#Cc1ccc(C2NC(=O)N(c3cccc(C(F)(F)F)c3)C3=C2C(=O)CC3)cn1` (stereo not drawn) [Example 12, 5-(2,5-Dioxo-1-(3-(trifluoromethyl)phenyl)-2,3,4,5,6,7-hexahydro-1H-cyclopenta[d]-pyrimidin-4-yl)picolinonitrile], the IC50 turned out to be 201 nM.
As for `N#Cc1ccc(C2NC(=O)N(c3cccc(C(F)(F)F)c3)C3=C2C(=O)CC3)c(Br)c1` (stereo not drawn) [Example 13, 3-Bromo-4-(2,5-dioxo-1-(3-(trifluoromethyl)phenyl)-2,3,4,5,6,7-hexahydro-1H-cyclopenta[d]pyrimidin-4-yl)benzonitrile], the IC50 turned out to be 17.9 nM.
With `CCS(=O)(=O)c1cc(C#N)ccc1[C@@H]1NC(=O)N(c2cccc(C(F)(F)F)c2)C2=C1C(=O)CC2` [Example 14B, (R)-4-(2,5-Dioxo-1-(3-(trifluoromethyl)phenyl)-2,3,4,5,6,7-hexahydro-1H-cyclopenta[d]pyrimidin-4-yl)-3-(ethylsulfonyl)benzonitrile], the IC50 was 33 nM.
For the compound `N#Cc1ccc(C2NC(=O)N(c3cccc(C(F)(F)F)c3)C3=C2C(=O)CC3)c(Cl)c1` (stereo not drawn) [Example 15, 3-Chloro-4-(2,5-dioxo-1-(3-(trifluoromethyl)phenyl)-2,3,4,5,6,7-hexahydro-1H-cyclopenta[d]pyrimidin-4-yl)benzonitrile], the IC50 came out at 30.1 nM.
Take `COc1cc(C#N)ccc1C1NC(=O)N(c2cccc(C(F)(F)F)c2)C2=C1C(=O)CC2` (stereo not drawn) [Example 15.1]: the IC50 came to 42.1 nM.
As for `Cc1cc(C#N)ccc1C1NC(=O)N(c2cccc(C(F)(F)F)c2)C2=C1C(=O)CC2` (stereo not drawn) [Example 15.2], the figure is 28.6 nM.
